Results as given in US12630527B2, “Broad spectrum anti-cancer compounds” (The Regents of the University of California, priority 2019, dated 2026).

How the values were obtained:
[1] = molecular target: T1, ALKBH5 (Homo sapiens, UniProt Q6P6C2); assay: Fluorescence enzymatic inhibition assay (m6A7-Broccoli / DFHBI-1T), ALKBH5; type: biochemical; settings: for inhibition of ALKBH5 at the highest concentration measured: highest concentration 40 μM; for IC50: Permeability Data and IC50 tables the 33rd table/the 34th table, unit inferred
T1 construct: SUMO (N); His10 (N); made in house; host or cells: E. coli BL21
Description: (§1) E. coli BL21 competent cells (New England Biolabs) were transformed with pET28-SUMO-His10-FTO plasmid (a generous gift from the Jaffrey lab) by heat shock and spread on a LB Kanamycin agar plate, then incubated overnight at 37° C. 2-3 colonies were picked and transferred to 5 mL of LB media treated with kanamycin (0.5 mg mL^−1 final concentration), then grown overnight shaking at 37° C. The overnight culture was then transferred to 2 L of LB kanamycin media and incubated at 37° C. until OD 0.8. The culture was cooled at 4° C. for 20 mins and induced with 0.5 mM isopropyl β-D-1-thiogalactopyranoside (IPTG), then grown shaken at 16° C. Cell pellets were collected by centrifugation (5,000 g for 10 min at 4° C.) and the supernatant was discarded. The pellets were resuspended in B-PER Bacterial Protein Extraction Reagent (6 mL per gram) with DNase 1 (5 U per mL, RNase-free) and incubated at 4° C. for 1 hour. The suspension was centrifuged at 10,000 g for 20 min and the supernatant was transferred to a Talon Metal Affinity Resin column that had been pre-equilibrized with binding buffer (50 mM NaH2PO4 pH 7.2, 300 mM NaCl, 20 mM imidazole, 1 mM β-mercaptoethanol in RNase-free water). […] The eluant was combined and transferred to a Slyde-A-Lyzer Dialysis Cassette (20,000 MWCO, Thermo Scientific) and dialyzed overnight at 4° C. against dialysis buffer (50 mM Tris-HCl pH 7.4, 100 mM NaCl, 5 mM B-mercaptoethanol, 5% (v/v) glycerol in RNase-free water). […] ALKBH5 was expressed and purified from pET28-SUMO-His10-ALKBH5 plasmid by the same procedure described above.
(§2) Inhibitors were added in concentrations ranging from 0.008-40 μM; all inhibitors were dissolved in DMSO and added to a final concentration of 0.2% DMSO. […] After incubation at room temperature for 2 hours, the plates were left at 4° C. overnight (16 hours) to allow DFHBI-1T to bind to A7-Broccoli RNA. […] Sigmoidal dose-response curves were fitted in GraphPad Prism 6. All assays were performed in triplicate, with additional repetitions added as necessary.

[2] = molecular target: T2, FTO (Homo sapiens, UniProt Q9C0B1); assay: Fluorescence enzymatic inhibition assay (m6A7-Broccoli / DFHBI-1T), FTO; type: biochemical; settings: for precipitation in assay buffer: dose response could not be determined
T2 construct: SUMO (N); His10 (N); made in house; host or cells: E. coli BL21
Description: In order to determine their efficacy as FTO inhibitors, the compounds were screened by a fluorescence enzymatic inhibition assay developed previously by the Jaffrey lab.^44 Briefly, a nonfluorescent methylated RNA substrate termed “m6A7-Broccoli” is incubated with FTO in the presence of 2-oxoglutarate (300 μM), (NH4)2Fe(SO4)2·6H2O (300 μM), and L-ascorbate (2 mM) for 2 hours at room temperature in reaction buffer (50 mM NaHEPES, pH 6).
as §1, §2

[3] = system: MOLT-4; assay: High Throughput Screen for growth inhibition, MOLT-4; type: cell-based; settings: MOLT-4, Leukemia; 3 days; unit not given
Description: (§3) The High Throughput Screen method is described below. The endpoint readout of this assay is based upon quantitation of ATP as an indicator of viable cells.
(§4) Cell lines that have been preserved in liquid nitrogen are thawed and expanded in growth media (see Table 1-3). Once cells have reached expected doubling times, screening begins. Cells are seeded in growth media in black 384-well tissue culture treated plates at 500-1500 cells per well (as noted in Analyzer). Cells are equilibrated in assay plates via centrifugation and placed at 37° C. 5% CO2 for twenty-four hours before treatment. […] Assay plates are incubated with compound for 3 days and are then analysed using CellTiter-Glo 2.0. All data points are collected via automated processes and are subject to quality control and analysed using Horizon's software.
(§5) Growth Inhibition (GI) is utilized as a measure of cell growth. The GI percentages are calculated by applying the following test and equation: If T<V_0: 100*(1−(T−V_0)/V_0) If T≥V_0: 100*(1−(T−V_0)/(V−V_0)) where T is the signal measure for a test article, V is the untreated/vehicle-treated control measure, and Vo is the untreated/vehicle control measure at time zero (also colloquially referred as T0 plates). This formula is derived from the Growth Inhibition calculation used in the National Cancer Institute's NCI-60 high throughput screen. For the purposes of this report, all data analysis was performed in Growth Inhibition (except where noted).
(§6) A GI of 100% represents complete growth inhibition (cytostasis) and in this case cells treated with compound for 3 days would have the same endpoint reading as TO control cells. A GI of 200% represents complete death (cytotoxicity) of all cells in the culture well and in this case the T reading at 3 days will be lower than the TO control (values near or at zero).
(§7) Horizon also provides Inhibition as a measure of cell viability. Inhibition levels of 0% represent no inhibition of cell growth by treatment. Inhibition of 100% represents no doubling of cell numbers during the treatment window. Both cytostatic and cytotoxic treatments can yield an Inhibition percentage of 100%. Inhibition percentage is calculated as the following: I=1−T/U where T is the treated and U is the untreated/vehicle control.

[4] = system: TS576 glioblastoma stem cells; assay: Tumorosphere (neurosphere) formation assay, TS576; type: cell-based, human; settings: TS576, 30 μM, 2 days, vs vehicle control
Description: To understand the effects of our FTO inhibitors on the self-renewal properties of GSCs, tumorospheres cultured from the patient-derived GSC line TS576 were treated with 30 μM of FTO-04, FTO-10, FTO-11, or FTO-12 (FIG. 29A-29B; cell line gifted from the Furnari lab).^45, 46 The GSCs were cultured in sphere-forming assays for 24 hours, then treated with either inhibitors or DMSO control for 2 days. The size of the tumorospheres was calculated using ImageJ.
Early passaged GSCs were used to understand the efficacy of ALK-04 on the self-renewal capacity of GSCs by tumorsphere-formation assay as described earlier^10, 11. In brief, GSCs were seeded at 4×10^4 cells in 24 well plate and cultured for 3 days followed by treatment with ALK-04 inhibitors at 20 μM daily for 3 days. After 3 days of treatment the images of the tumorospheres were imaged with phase contrast microscope and size was measured with Image J, to understand the effects of drugs on the self-renewal of GSCs on sphere formation. This process was also repeated for healthy neural stem cells (hNSCs) treated daily with 20 μM ALK-04 for three days to assess the therapeutic ratio.

[5] = system: HCT-116; assay: High Throughput Screen for growth inhibition, HCT-116; type: cell-based; settings: HCT-116, Colon; 3 days; unit not given
Description: as §3, §4
(§8) Growth Inhibition (GI) is utilized as a measure of cell growth. The GI percentages are calculated by applying the following test and equation: If T<V_0: 100*(1−(T−V_0)/V_0) If T≥V_0: 100*(1−(T−V_0)/(V−V_0)) where T is the signal measure for a test article, V is the untreated/vehicle-treated control measure, and Vo is the untreated/vehicle control measure at time zero (also colloquially referred as T0 plates). This formula is derived from the Growth Inhibition calculation used in the National Cancer Institute's NCI-60 high throughput screen. […]

[6] = system: BICR16; assay: High Throughput Screen for growth inhibition, BICR16; type: cell-based; settings: BICR16, Head and Neck; 3 days; unit not given
Description: as §3, §4, §5, §6
(§9) Horizon also provides Inhibition as a measure of cell viability. Inhibition levels of 0% represent no inhibition of cell growth by treatment. […] Inhibition percentage is calculated as the following: I=1−T/U where T is the treated and U is the untreated/vehicle control.

[7] = system: LUDLU-1; assay: High Throughput Screen for growth inhibition, LUDLU-1; type: cell-based; settings: LUDLU-1, LUSC; 3 days; unit not given
Description: as §3, §4, §5, §6, §9

[8] = system: Kasumi-1; assay: High Throughput Screen for growth inhibition, Kasumi-1; type: cell-based; settings: Kasumi-1, Leukemia; 3 days; unit not given
Description: as §3, §4, §8

[9] = system: SW480; assay: High Throughput Screen for growth inhibition, SW480; type: cell-based; settings: SW480, Colon; 3 days; unit not given
Description: as §3, §4, §8

[10] = system: AGS; assay: High Throughput Screen for growth inhibition, AGS; type: cell-based; settings: Gastric, 3 days, unit not given
Description: as §3, §4, §5, §6, §7

[11] = system: SUM159PT; assay: High Throughput Screen for growth inhibition, SUM159PT; type: cell-based; settings: Breast, 3 days, unit not given
Description: as §3, §4, §8

[12] = system: HEC-50B; assay: High Throughput Screen for growth inhibition, HEC-50B; type: cell-based; settings: Endometrial (uterine), 3 days, unit not given
Description: as §3, §4, §8

T1 sequence (Q6P6C2 whole entry): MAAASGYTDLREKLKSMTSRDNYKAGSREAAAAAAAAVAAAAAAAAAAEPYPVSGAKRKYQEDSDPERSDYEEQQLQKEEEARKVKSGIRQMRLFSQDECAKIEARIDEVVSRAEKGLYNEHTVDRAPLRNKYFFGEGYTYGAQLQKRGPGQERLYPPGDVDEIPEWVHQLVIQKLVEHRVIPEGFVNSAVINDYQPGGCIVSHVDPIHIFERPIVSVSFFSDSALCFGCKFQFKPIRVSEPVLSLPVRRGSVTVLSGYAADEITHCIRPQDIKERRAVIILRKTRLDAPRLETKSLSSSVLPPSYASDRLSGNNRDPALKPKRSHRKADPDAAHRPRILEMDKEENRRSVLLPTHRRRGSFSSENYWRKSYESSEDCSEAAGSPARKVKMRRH
T2 sequence (Q9C0B1 whole entry): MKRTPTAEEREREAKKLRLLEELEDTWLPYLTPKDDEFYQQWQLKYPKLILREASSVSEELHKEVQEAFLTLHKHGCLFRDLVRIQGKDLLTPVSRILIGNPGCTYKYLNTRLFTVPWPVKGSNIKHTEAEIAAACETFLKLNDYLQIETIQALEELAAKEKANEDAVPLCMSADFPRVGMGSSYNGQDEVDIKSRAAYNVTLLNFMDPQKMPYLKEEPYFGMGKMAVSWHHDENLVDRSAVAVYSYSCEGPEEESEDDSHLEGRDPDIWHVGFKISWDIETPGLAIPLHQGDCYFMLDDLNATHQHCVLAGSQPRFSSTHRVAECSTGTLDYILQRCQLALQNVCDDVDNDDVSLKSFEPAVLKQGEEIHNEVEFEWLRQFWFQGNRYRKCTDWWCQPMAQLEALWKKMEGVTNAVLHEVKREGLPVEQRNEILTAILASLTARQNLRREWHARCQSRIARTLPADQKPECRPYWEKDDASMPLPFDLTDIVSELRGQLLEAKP

COCCNc1ncc(-c2ccc(OCc3ccccc3)cc2)cn1 [FTO-18, 5-(4-(benzyloxy)phenyl)-N-(2-methoxyethyl)pyrimidin-2-amine]
inhibition of ALKBH5 at the highest concentration measured [1]: no measurable inhibition

COc1ncc(-c2cccc(OCc3ccccc3)c2)cn1 [FTO-3, 5-(3-(benzyloxy)phenyl)-2-methoxypyrimidine]
precipitation in assay buffer [2]: significant precipitation in assay buffer

FC1CCN(C2(CNCc3ccc(-c4ccccc4Cl)o3)COC2)C1 (centres unmarked) [TR-FTO-49 N]
Growth Inhibition (GI) Values [3]: 27.521

Nc1ncc(-c2ccc3cc(O)ccc3c2)cn1 [FTO-10, 6-(2-aminopyrimidin-5-yl)naphthalen-2-ol]
size of tumorospheres [4]: significant reduction in size of the tumorospheres

COc1ccc2cc(-c3cncnc3)ccc2c1 [FTO-5, 5-(6-methoxynaphthalen-2-yl)pyrimidine]
inhibition of ALKBH5 at the highest concentration measured [1]: no measurable inhibition

COC(=O)C1COC(c2ccc(OC)cc2)N1 (centres unmarked) [ALK-12]
IC50 [1]: 16.7 ± 2.6 µM

COC(=O)C1COC(c2ccccc2F)N1 (centres unmarked) [ALK-14]
IC50 [1]: 29.8 ± 2.9 µM

Clc1ccccc1-c1ccc(CNCC2(N3CCCC3)COC2)o1 [TR-FTO-43 N]
Growth Inhibition (GI) Values [5]: 31.451
Growth Inhibition (GI) Values [3]: 24.595
Growth Inhibition (GI) Values [6]: 25.212
Growth Inhibition (GI) Values [7]: 28.561
Growth Inhibition (GI) Values [8]: 18.136
Growth Inhibition (GI) Values [9]: 28.499
Growth Inhibition (GI) Values [10]: 21.005

Cc1ccc2cc(-c3cncnc3)ccc2n1 [FTO-7, 2-methyl-6-(pyrimidin-5-yl)quinoline]
inhibition of ALKBH5 at the highest concentration measured [1]: no measurable inhibition

COc1ccc2cc(-c3cnc(N)nc3)ccc2c1 [FTO-12, 5-(6-methoxynaphthalen-2-yl)pyrimidin-2-amine]
size of tumorospheres [4]: significant reduction in size of the tumorospheres
inhibition of ALKBH5 at the highest concentration measured [1]: no measurable inhibition

Oc1ccc2cc(-c3cncnc3)ccc2c1 [FTO-1, 6-(pyrimidin-5-yl)naphthalen-2-ol]
inhibition of ALKBH5 at the highest concentration measured [1]: no measurable inhibition

c1cncc(CNc2ccc(CNC3CC3)cn2)c1 [TR-YTH-05]
Growth Inhibition (GI) Values [11]: 8.629
Growth Inhibition (GI) Values [10]: 6.35

COCCNc1ncc(-c2ccc3cc(OC)ccc3c2)cn1 [FTO-15, N-(2-methoxyethyl)-5-(6-methoxynaphthalen-2-yl)pyrimidin-2-amine]
precipitation in assay buffer [2]: significant precipitation in assay buffer

COc1ncc(-c2ccc3nc(C)ccc3c2)cn1 [FTO-11, 6-(2-methoxypyrimidin-5-yl)-2-methylquinoline]
size of tumorospheres [4]: significant reduction in size of the tumorospheres

Nc1ncc(-c2cccc(Nc3ccccc3)c2)cn1 [FTO-9, 5-(3-(phenylamino)phenyl)pyrimidin-2-amine]
preference (selectivity) between FTO and ALKBH5 ([2]; ratio of potency towards FTO and ALKBH5): almost ten times more potent towards ALKBH5

c1ccc(-c2ccc(CNCC3(N4CCCC4)COC3)s2)cc1 [TR-FTO-38]
Growth Inhibition (GI) Values [3]: 24.366
Growth Inhibition (GI) Values [6]: 29.832
Growth Inhibition (GI) Values [7]: 31.952
Growth Inhibition (GI) Values [12]: 14.018
Growth Inhibition (GI) Values [10]: 23.3

COC(=O)C1COC(c2ccccc2OC)N1 (centres unmarked) [ALK-15]
IC50 [1]: 18.2 ± 2.3 µM
